According to publication PMC8397956 (Molecules, 2021):
Read-outs that look alike come from different tables or passages of the source. Marks after values point to notes of the source that are not given here.

Key:
E. coli XL1 Blue [1] = assay: Growth inhibition of E. coli XL1 Blue, paper disc diffusion on LB solid medium; type: cell-based, Escherichia coli; conditions: for Growth Inhibition Zone: 24 h at 37 °C; for colonies of tolerant bacteria in the inhibition zone / bacterial growth inhibition (in words): paper disc diffusion; for bacterial growth inhibition (in words): Figure 1A
Experimental: The antimicrobial activity of α,α-difluorophosphonate 9a and 10 was determined using the paper disc diffusion method and was compared with the antimicrobial activity of the non-fluorinated phosphonate and phosphate compounds 3, 4 et 6. The diameters of the inhibition zone are given with respect to the amount of inhibitor deposited on the disc (Table 2).
(§1) The antimicrobial activity of hydroxamic acids 9b, 10a and 10b against E. coli XL1 Blue and fosmidomycin-resistant strain E. coli FosR [7], was determined using the paper disc diffusion method. LB agar plates (9 cm diameter) were inoculated with a suspension of bacteria (200 μL, mid-exponential phase). […] Growth inhibition was examined after 24 h incubation at 37 °C.

E. coli H6-DXR [2] = target: T1, E. coli H6-DXR (Escherichia coli, UniProt P45568); assay: Inhibition of E. coli His-tagged DXR (photometric NADPH assay); type: biochemical
T1 construct: His6 (H6)
Experimental: The inhibition potency of α,α-difluorophosphonohydroxamic acid derivatives was characterized by their IC50 value that was determined as previously described. […] Residual activity was measured after initiating the enzymatic reaction by addition of DXP.
The assays were performed at 37 °C in a 50 mM Tris/HCl buffer pH 7.5 containing 3 mM MgCl2 and 2 mM DTT. The concentrations of DXP and NADPH were 480 µM and 160 µM respectively. The decrease of absorbance at 340 nm due to NADPH oxidation was monitored to determine the initial rates. The retained values were the average of at least two measurements. The relative average deviation must be lower than 4%.
Inhibitor concentrations in the stock solutions were verified by spectrophotometric phosphorus determination. The study compounds 9b and 10a, 10b were tested against E. coli DXR using a photometric assay that was described earlier. H-DXR was pre-incubated during 2 min in the presence of the inhibitors 9b, 10a and 10b at different concentrations and NADPH. DXP was then added to measure the residual activity. The inhibitory potential of the tested compounds was quantified by determining the IC50 values. They were obtained by plotting the percentage of residual activity versus the Log of inhibitor concentration.

E. coli XL1 Blue [3] = conditions: cited from earlier work
E. coli H6-DXR [4] = target: T1, E. coli H6-DXR; conditions: cited from earlier work
[5] = tested on: Plasmodium falciparum (K1 strain); set-up: method as in PMID 20568776; conditions: racemic mixtures, intraerythrocytic forms, ref [14]; cited from earlier work
[6] = tested on: fosmidomycin-resistant strain E. coli FosR; assay: Growth inhibition of fosmidomycin-resistant E. coli FosR, paper disc diffusion; type: cell-based, Escherichia coli; conditions: GlpT/UhpT transporters inoperative, Figure 1B
Experimental: as §1

T1 sequence (P45568 whole entry): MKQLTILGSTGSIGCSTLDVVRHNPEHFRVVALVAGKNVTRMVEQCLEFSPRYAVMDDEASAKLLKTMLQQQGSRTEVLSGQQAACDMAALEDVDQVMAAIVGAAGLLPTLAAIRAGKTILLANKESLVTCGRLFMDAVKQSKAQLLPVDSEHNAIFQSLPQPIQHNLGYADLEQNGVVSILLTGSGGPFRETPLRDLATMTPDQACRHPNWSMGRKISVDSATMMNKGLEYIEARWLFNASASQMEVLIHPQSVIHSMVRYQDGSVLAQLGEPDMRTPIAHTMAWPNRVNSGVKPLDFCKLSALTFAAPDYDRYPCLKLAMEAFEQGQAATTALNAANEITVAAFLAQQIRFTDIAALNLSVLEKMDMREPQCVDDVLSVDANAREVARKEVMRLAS

SMILES: O=CN(O)CCCP(=O)(O)O [Compound 3a, fosmidomycin]
- Growth Inhibition Zone (E. coli XL1 Blue [1]; 2 nmoles/disc): 35 mm
- colonies of tolerant bacteria in the inhibition zone (E. coli XL1 Blue [1]): colonies of tolerant bacteria

SMILES: CC(=O)N(O)CCCP(=O)(O)O [Compound 3b, FR-900098]
- IC50 (E. coli H6-DXR [2]): 4 nM
- Growth Inhibition Zone (E. coli XL1 Blue [3]; 2 nmoles/disc, ref [9]): 32 * mm

SMILES: O=C(CCCP(=O)(O)O)NO [Compound 4a]
- IC50 (E. coli H6-DXR [4]; ref [8]): 180 nM
- Growth Inhibition Zone (E. coli XL1 Blue [3]; 400 nmoles/disc, ref [8]): 12 ** mm

SMILES: CN(O)C(=O)CCCP(=O)(O)O [Compound 4b]
- Growth Inhibition Zone (E. coli XL1 Blue [3]; 80 nmoles/disc, ref [8]): 30 ** mm

SMILES: O=CN(O)CCOP(=O)(O)O [Compound 5a, fosfoxacin]
- IC50 (E. coli H6-DXR [4]; ref [9]): 342 nM

SMILES: CC(=O)N(O)CCOP(=O)(O)O [Compound 5b]
- IC50 (E. coli H6-DXR [4]; ref [9]): 77 nM

SMILES: O=C(CCOP(=O)(O)O)NO [Compound 6a]
- IC50 (E. coli H6-DXR [4]; ref [9]): 2600 nM
- Growth Inhibition Zone (E. coli XL1 Blue [3]; 400 nmoles/disc, ref [9]): <10 * mm

SMILES: CN(O)C(=O)CCOP(=O)(O)O [Compound 6b]
- IC50 (E. coli H6-DXR [4]; ref [9]): 46 nM
- Growth Inhibition Zone (E. coli XL1 Blue [3]; 160 nmoles/disc, ref [9]): 20 * mm

SMILES: CC(=O)N(O)CCC(F)P(=O)(O)O (stereo not drawn) [Compound 7]
- activity compared with parent compounds fosmidomycin and 4b [5]: more active

SMILES: CN(O)C(=O)CCC(F)P(=O)(O)O (stereo not drawn) [Compound 8]
- activity compared with parent compounds fosmidomycin and 4b [5]: more active

SMILES: CC(=O)N(O)CCC(F)(F)P(=O)(O)O [Compound 9b, (1,1-Difluoro-3-(N-hydroxyacetamido)propyl)phosphonic acid]
- IC50 (E. coli H6-DXR [2]): 9 nM
- Growth Inhibition Zone (E. coli XL1 Blue [1]; 2 nmoles/disc): 15 mm
- colonies of tolerant bacteria in the inhibition zone (E. coli XL1 Blue [1]): did not appear
- bacterial growth inhibition (in words) (E. coli XL1 Blue [1]): quite effective to inhibit bacterial growth
- bacterial growth inhibition (in words) [6]: No growth inhibition

SMILES: O=C(CCC(F)(F)P(=O)(O)O)NO [Compound 10a, (1,1-Difluoro-4-(hydroxyamino)-4-oxobutyl)phosphonic acid]
- IC50 (E. coli H6-DXR [2]): 4600 nM
- fold less efficient than N-methylated analogue 10b (E. coli H6-DXR [2]; ratio of IC50 values on E. coli DXR): 280
- bacterial growth inhibition (in words) (E. coli XL1 Blue [1]): no inhibition was observed

SMILES: CN(O)C(=O)CCC(F)(F)P(=O)(O)O [Compound 10b, (1,1-Difluoro-4-(hydroxy(methyl)amino)-4-oxobutyl)phosphonic acid]
- IC50 (E. coli H6-DXR [2]): 17 nM
- Growth Inhibition Zone (E. coli XL1 Blue [1]; 1.5 nmoles/disc): 20 mm
- colonies of tolerant bacteria in the inhibition zone (E. coli XL1 Blue [1]): did not appear
- bacterial growth inhibition (in words) (E. coli XL1 Blue [1]): quite effective to inhibit bacterial growth
